Values joined by “and” are separate entries in the source; they are usually repeats but may differ in a detail not shown here. Equal values may be shown once. Inconclusive results and toxic doses are left out.
System: P388 leukemia ip, CD2F1 mice, survival T/C
Test: NCI In Vivo Anticancer Drug Screen. Data for tumor model P388 Leukemia (intraperitoneal) in CD2F1 (CDF1) mice
Settings: endpoint: median survival time, higher = longer survival
Procedure, shortened: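 Mice carrying the transplanted tumor received test compound or vehicle. Survival was recorded in each group, and the value is the treated-group measurement divided by that of the vehicle-treated control group.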

[1] = dose: 50.0 mg/kg/injection, schedule: Q01DX009 (ip), vehicle: saline
[2] = dose: 100.0 mg/kg/injection, schedule: Q01DX009 (ip), vehicle: saline
[3] = dose: 200.0 mg/kg/injection, schedule: Q01DX009 (ip), vehicle: saline
[4] = dose: 50.0 mg/kg/injection, schedule: Q01DX009 (ip), vehicle: saline with Tween-80
[5] = dose: 100.0 mg/kg/injection, schedule: Q01DX009 (ip), vehicle: saline with Tween-80
[6] = dose: 25.0 mg/kg/injection, schedule: Q01DX009 (ip), vehicle: saline with Tween-80
[7] = dose: 12.5 mg/kg/injection, schedule: Q01DX009 (ip), vehicle: saline with Tween-80
[8] = dose: 200.0 mg/kg/injection, schedule: Q01DX009 (ip), vehicle: saline with Tween-80
[9] = dose: 50.0 mg/kg/injection, schedule: Q01DX005 (ip), vehicle: saline with Tween-80
[10] = dose: 100.0 mg/kg/injection, schedule: Q01DX005 (ip), vehicle: saline with Tween-80
[11] = dose: 200.0 mg/kg/injection, schedule: Q01DX005 (ip), vehicle: saline with Tween-80

SMILES: C1CCC(N=C(NC2CCCCC2)N2CCOCC2)CC1
- T/C (dose: 6.25 mg/kg/injection, schedule: Q01DX009 (ip), vehicle: saline): 99 % of control
- T/C (dose: 12.5 mg/kg/injection, schedule: Q01DX009 (ip), vehicle: saline): 99 % of control
- T/C (dose: 25.0 mg/kg/injection, schedule: Q01DX009 (ip), vehicle: saline): 100 % of control
- T/C [1]: 89 % of control

SMILES: C[CH2][Ge]([CH2]C)[CH2]C.C[CH2][Ge]([CH2]C)[O]C
- T/C [1]: 106 % of control
- T/C [2]: 92 % of control
- T/C [3]: 92 % of control

SMILES: O=C(CC(O)(c1ccccc1)c1ccccc1)SCc1ccccc1
- T/C (dose: 100.0 mg/kg/injection, schedule: Q04DX003 (ip), vehicle: Klucel (hydroxypropylcellulose) (HPC)): 102 % of control
- T/C (dose: 200.0 mg/kg/injection, schedule: Q04DX003 (ip), vehicle: Klucel (hydroxypropylcellulose) (HPC)): 98 % of control
- T/C (dose: 400.0 mg/kg/injection, schedule: Q04DX003 (ip), vehicle: Klucel (hydroxypropylcellulose) (HPC)): 110 % of control

SMILES: Nc1cnc2ccccn12
- T/C [4]: 97 % of control
- T/C [5]: 102 % of control

SMILES: O=C(SCN1CCCCC1)c1ccccc1
- T/C [6]: 100 % of control
- T/C [4]: 113 % of control
- T/C [5]: 109 % of control

SMILES: CC[OH+]CC[OH+]CC[OH+]C1CCCC2CCC[N-]C21.[Cl][Cu][Cl] (configuration not stated)
- T/C (dose: 6.25 mg/kg/injection, schedule: Q01DX005 (ip), vehicle: Klucel (hydroxypropylcellulose) (HPC)): 97 % of control
- T/C (dose: 12.5 mg/kg/injection, schedule: Q01DX005 (ip), vehicle: Klucel (hydroxypropylcellulose) (HPC)): 92 % of control

SMILES: Nc1ncnc2c1ncn2C1OC(CO)C(O)C1N (configuration not stated)
- T/C (dose: 50.0 mg/kg/injection, schedule: Q04DX002 (ip), vehicle: saline): 106 % of control
- T/C (dose: 100.0 mg/kg/injection, schedule: Q04DX002 (ip), vehicle: saline): 110 % of control
- T/C (dose: 200.0 mg/kg/injection, schedule: Q04DX002 (ip), vehicle: saline): 112 % of control

SMILES: COc1cccc2c1C(=O)c1c(O)c3c(c(O)c1C2=O)C[C@H](O)C[C@@H]3OC1CC(N)C(O)C(C)O1 (some centres not stated)
- T/C (dose: 0.5 mg/kg/injection, schedule: Q04DX003 (ip), vehicle: saline): 105 % of control
- T/C (dose: 1.0 mg/kg/injection, schedule: Q04DX003 (ip), vehicle: saline): 114 % of control
- T/C (dose: 1.56 mg/kg/injection, schedule: Q01DX009 (ip), vehicle: water): 155 % of control and 161 % of control
- T/C (dose: 2.0 mg/kg/injection, schedule: Q04DX003 (ip), vehicle: saline): 107 % of control
- T/C (dose: 3.13 mg/kg/injection, schedule: Q01DX009 (ip), vehicle: water): 174 % of control
- T/C (dose: 4.0 mg/kg/injection, schedule: Q04DX003 (ip), vehicle: saline): 117 % of control
- T/C (dose: 4.7 mg/kg/injection, schedule: Q04DX003 (ip), vehicle: water): 109 % of control
- T/C (dose: 6.25 mg/kg/injection, schedule: Q01DX009 (ip), vehicle: water): 180 % of control and 209 % of control
- T/C (dose: 8.0 mg/kg/injection, schedule: Q04DX003 (ip), vehicle: saline): 108 % of control
- T/C (dose: 12.5 mg/kg/injection, schedule: Q01DX009 (ip), vehicle: water): 228 % of control and 236 % of control
- T/C (dose: 64.0 mg/kg/injection, schedule: Q04DX003 (ip), vehicle: saline): 169 % of control
- T/C (dose: 75.0 mg/kg/injection, schedule: Q04DX003 (ip), vehicle: water): 181 % of control
- T/C (dose: 113.0 mg/kg/injection, schedule: Q04DX003 (ip), vehicle: water): 116 % of control
- T/C (dose: 128.0 mg/kg/injection, schedule: Q04DX003 (ip), vehicle: saline): 100 % of control

SMILES: Cn1c(=O)c2[nH]c(Cl)nc2n(CCCl)c1=O
- T/C [7]: 100 % of control and 88 % of control
- T/C [6]: 89 % of control and 98 % of control
- T/C [4]: 102 % of control and 95 % of control
- T/C [5]: 104 % of control and 109 % of control

SMILES: O=C([O][Hg][CH2]C1COC([CH2][Hg][O]C(=O)c2ccccc2)CO1)c1ccccc1 (configuration not stated)
- T/C [6]: 120 % of control
- T/C (dose: 25.0 mg/kg/injection, schedule: Q04DX003 (ip), vehicle: saline with Tween-80): 104 % of control
- T/C [4]: 120 % of control
- T/C (dose: 50.0 mg/kg/injection, schedule: Q04DX003 (ip), vehicle: saline with Tween-80): 90 % of control
- T/C (dose: 100.0 mg/kg/injection, schedule: Q04DX003 (ip), vehicle: saline with Tween-80): 95 % of control

SMILES: CC(C)C(Br)C(Br)c1ccccc1 (configuration not stated)
- T/C [4]: 100 % of control
- T/C [5]: 104 % of control
- T/C [8]: 104 % of control

SMILES: CCOC(=O)C12OC(=O)CC(NC1C(=O)OC(C)(C)C)C2O (configuration not stated)
- T/C (dose: 60.0 mg/kg/injection, schedule: Q01DX005 (ip), vehicle: saline): 98 % of control
- T/C (dose: 120.0 mg/kg/injection, schedule: Q01DX005 (ip), vehicle: saline): 91 % of control
- T/C (dose: 240.0 mg/kg/injection, schedule: Q01DX005 (ip), vehicle: saline): 104 % of control

SMILES: COc1ccc(C(N)Cc2ccccc2)cc1 (configuration not stated)
- T/C (dose: 50.0 mg/kg/injection, schedule: Q01DX005 (ip), vehicle: Klucel (hydroxypropylcellulose) (HPC)): 92 % of control
- T/C (dose: 100.0 mg/kg/injection, schedule: Q01DX005 (ip), vehicle: Klucel (hydroxypropylcellulose) (HPC)): 100 % of control
- T/C (dose: 200.0 mg/kg/injection, schedule: Q01DX005 (ip), vehicle: Klucel (hydroxypropylcellulose) (HPC)): 102 % of control

SMILES: COC1(OC)C(c2ccccc2)C(C#N)(C#N)C1(OC)OC (configuration not stated)
- T/C (dose: 60.0 mg/kg/injection, schedule: Q01DX005 (ip), vehicle: Klucel (hydroxypropylcellulose) (HPC)): 102 % of control
- T/C (dose: 120.0 mg/kg/injection, schedule: Q01DX005 (ip), vehicle: Klucel (hydroxypropylcellulose) (HPC)): 100 % of control
- T/C (dose: 240.0 mg/kg/injection, schedule: Q01DX005 (ip), vehicle: Klucel (hydroxypropylcellulose) (HPC)): 99 % of control

SMILES: Cc1ccc2c(/C=C/c3ccc(N(C)C)cc3)ccnc2c1C
- T/C [7]: 123 % of control
- T/C [4]: 150 % of control
- T/C [5]: 99 % of control

SMILES: C=CC12CCC(CC1)n1c(=O)n(C)c(=O)n12
- T/C [9]: 99 % of control
- T/C [10]: 103 % of control
- T/C [11]: 100 % of control

SMILES: O=C(/C=C/c1cn(C(=O)CCCl)c2ccccc12)c1cccc([N+](=O)[O-])c1
- T/C (dose: 60.0 mg/kg/injection, schedule: Q01DX005 (ip), vehicle: saline with Tween-80): 99 % of control
- T/C (dose: 120.0 mg/kg/injection, schedule: Q01DX005 (ip), vehicle: saline with Tween-80): 96 % of control
- T/C (dose: 240.0 mg/kg/injection, schedule: Q01DX005 (ip), vehicle: saline with Tween-80): 89 % of control

SMILES: CN(C)[C@@H]1C(=O)C(C(N)=O)=C(O)[C@@]2(O)C(=O)C3=C(O)c4c(O)ccc(Cl)c4[C@@](C)(O)[C@H]3C[C@@H]12
- T/C (dose: 100.0 mg/kg/injection, schedule: Q04DX003 (ip), vehicle: saline): 104 % of control
- T/C (dose: 200.0 mg/kg/injection, schedule: Q04DX003 (ip), vehicle: saline): 113 % of control

SMILES: CNC(=N)c1ccc(NC(=N)c2ccc(NC(=N)c3ccc(NC(=O)Nc4ccc(C(=N)Nc5ccc(C(=N)Nc6ccc(C(=N)NC)cc6)cc5)cc4)cc3)cc2)cc1
- T/C (dose: 1.78 mg/kg/injection, schedule: Q04DX003 (ip), vehicle: saline with Tween-80): 108 % of control
- T/C (dose: 2.66 mg/kg/injection, schedule: Q04DX003 (ip), vehicle: saline with Tween-80): 108 % of control
- T/C (dose: 4.0 mg/kg/injection, schedule: Q04DX003 (ip), vehicle: saline with Tween-80): 116 % of control

SMILES: CSCCC(O)C(NC(=O)CCl)C(=O)O (configuration not stated)
- T/C [1]: 89 % of control and 96 % of control
- T/C [2]: 98 % of control and 102 % of control
- T/C [3]: 93 % of control and 95 % of control

SMILES: O=C(CCN1CCCC1)Nc1nc(-c2ccc(Cl)cc2)cs1
- T/C [9]: 102 % of control
- T/C [10]: 93 % of control
- T/C [11]: 94 % of control

SMILES: CCOC(=O)c1ccc(NC(=O)Nc2cnccn2)cc1
- T/C [7]: 92 % of control
- T/C [6]: 93 % of control
- T/C [4]: 86 % of control and 91 % of control
- T/C [5]: 95 % of control
- T/C [8]: 90 % of control

SMILES: O=C1C(Cl)=C(NCCCN(CCCNC2=C(Cl)C(=O)c3ccccc3C2=O)C2=C(Cl)C(=O)c3ccccc3C2=O)C(=O)c2ccccc21
- T/C [1]: 108 % of control and 118 % of control
- T/C [2]: 109 % of control and 115 % of control
- T/C [3]: 105 % of control and 108 % of control

SMILES: C/C=C1\CN2CCC34c5ccccc5N(C(C)=O)C3C(C=O)C1CC24 (configuration not stated)
- T/C (dose: 7.88 mg/kg/injection, schedule: Q01DX005 (ip), vehicle: saline + Tween-80 + alcohol): 101 % of control
- T/C (dose: 15.75 mg/kg/injection, schedule: Q01DX005 (ip), vehicle: saline + Tween-80 + alcohol): 109 % of control
- T/C (dose: 31.5 mg/kg/injection, schedule: Q01DX005 (ip), vehicle: saline + Tween-80 + alcohol): 103 % of control
- T/C (dose: 63.0 mg/kg/injection, schedule: Q01DX005 (ip), vehicle: saline + Tween-80 + alcohol): 103 % of control
